Test results reported in US11141413B2, “Method of treating renal cell carcinoma using N-(4-(6,7-dimethoxyquinolin-4-yloxy)phenyl)-N′-(4-fluorophenyl)cyclopropane-1,1-dicarboxamide, (2S)-hydroxybutanedioate” (Exelixis, Inc., priority 2016, dated 2021).

System: bone metastases in advanced RCC patients
Test: METEOR bone endpoints: bone scan response, skeletal-related events, bone markers
Type: in vivo, human
Conditions: for C-terminal cross-lined telopeptides of type 1 collagen (CTx), median / N-terminal propeptide of type 1 collagen (P1NP), median: patients with bone metastases at baseline; for Bone scan response (BSR) per IRC: patients with bone lesions at baseline by bone scan, BSR = ≥30% decrease in BSLA
Source text: The study design in depicted in FIG. 8.3. Clinical outcome measures included PFS, ORR, overall survival (OS), and safety. Exploratory endpoints included bone scan response (BSR) in patients with bone scan lesions at baseline (Brown Nucl Med Commun 2012 33:384), incidence of skeletal-related events (SRE), and changes in bone turnover markers. The subgroup of patients with bone metastases (N=142) was defined by the presence of bone metastases at baseline by CT or MRI per IRC. Bone scan response (BSR) was evaluated for patients who had bone lesions detected by technetium bone scans at baseline (N=178).
Participants were screened via CT or MRI every 8 weeks for the first 12-months post-randomization, and then every 12 weeks thereafter. Technetium bone scans were performed at screening (all patients), every 16 weeks for the first 12 months post-randomization (only in patients with bone lesions at baseline), and then every 23 weeks thereafter. Skeletal-related events (SREs) were assessed and consisted of pathological fractures, spinal cord compression, surgery to bone, and external radiation therapy to bone. Serum bone marker analyses consisted on N-terminal propeptide of type I collagen (PINP), and the bone resorption marker c-terminal cross-lined telopeptides of type I collagen (CTx), which were collected prior to the first dose at week 1, at week 5, and at week 9.
Bone scan responses per IRC in patients with bone scan lesions were performed using computer-assisted detection of bone scan lesions. An IRC was used to quantitate bone scan tumor burden using computer-assisted detection (CAD) to measure lesions and defined criteria for response. Bone scan lesion area (BSLA), which represents the number of pixels with radiotracer uptake above the threshold for normal bone, was also calculated. BSR was defined as greater than or equal to 30% decrease in BSLA.

[1] = patients with an SRE pre-randomization
[2] = prior history of SREs, Pts with Bone Metastases
[3] = prior history of SREs, Pts without Bone Metastases

SMILES	C-terminal cross-lined telopeptides of type 1 collagen (CTx), median (Baseline)	N-terminal propeptide of type 1 collagen (P1NP), median (Baseline)	Post-Randomization SREs, % (Pts with Bone Metastases)	Post-randomization SRE: External radiation therapy to bone, % (Pts with Bone Metastases)	Post-randomization SRE: Pathologic fractures, % (Pts with Bone Metastases)	Post-randomization SRE: Spinal cord compression, % (Pts with Bone Metastases)	Post-randomization SRE: Surgery to bone, % (Pts with Bone Metastases)	Time to first SRE, median (Pts with Bone Metastases)	Post-Randomization SREs, % (Pts without Bone Metastases)	Post-randomization SRE: External radiation therapy to bone, % (Pts without Bone Metastases)	Post-randomization SRE: Pathologic fractures, % (Pts without Bone Metastases)	Post-randomization SRE: Spinal cord compression, % (Pts without Bone Metastases)	Post-randomization SRE: Surgery to bone, % (Pts without Bone Metastases)	Time to first SRE, median (Pts without Bone Metastases)	C-terminal cross-lined telopeptides of type 1 collagen (CTx), median (Week 5)	N-terminal propeptide of type 1 collagen (P1NP), median (Week 5)	Cases of spinal cord compression [1]	Incidence of post-randomization SREs [1]	Bone scan response (BSR) per IRC	Post-randomization SRE: External radiation therapy to bone, % [2]	other results
COc1cc2nccc(Oc3ccc(NC(=O)C4(C(=O)Nc5ccc(F)cc5)CC4)cc3)c2cc1OC [cabozantinib]	0.40 µg/L	48.5 µg/L	(21) %	(9) %	(12) %	(3) %	(8) %	3.45 months	(9) %	(7) %	(3) %	(1) %	(2) %	3.93 months	0.19 µg/L	38.9 µg/L	0	16%	18%	(9) %	Reductions in bone markers (cabozantinib vs everolimus): greater; Bone scan response (BSR) per IRC (listed as Cabozantinib): 18 (11, 27) %; Post-randomization SRE: Pathologic fractures, % [2]: (14) %; Post-randomization SRE: Surgery to bone, % [2]: (9) %; SREs in patients with a prior history of SREs, % [2]: (23) %; Time to first SRE, median [2]: 3.25 months; Post-randomization SRE: External radiation therapy to bone, % [3]: (8) %; Post-randomization SRE: Pathologic fractures, % [3]: (6) %; Post-randomization SRE: Surgery to bone, % [3]: (4) %; SREs in patients with a prior history of SREs, % [3]: (10) %; Time to first SRE, median [3]: 2.76 months; Cases of spinal cord compression (randomized patients): 4; Patients with at least one skeletal-related event (SRE) (randomized patients): 12%
CO[C@H]1C[C@@H]2CC[C@@H](C)[C@@](O)(O2)C(=O)C(=O)N2CCCC[C@H]2C(=O)O[C@H]([C@H](C)C[C@@H]2CC[C@@H](OCCO)[C@H](OC)C2)CC(=O)[C@H](C)/C=C(\C)[C@@H](O)[C@@H](OC)C(=O)[C@H](C)C[C@H](C)/C=C/C=C/C=C/1C [everolimus]	0.43 µg/L	49.9 µg/L	(29) %	(25) %	(5) %	(6) %	(8) %	2.53 months	(10) %	(7) %	(3) %	(2) %	(2) %	4.27 months	0.43 µg/L	44.1 µg/L	5	34%	10%	(28) %	Bone scan response (BSR) per IRC (listed as Everolimus): 10 (4, 19) %; Post-randomization SRE: Pathologic fractures, % [2]: (5) %; Post-randomization SRE: Spinal cord compression, % [2]: (5) %; Post-randomization SRE: Surgery to bone, % [2]: (7) %; SREs in patients with a prior history of SREs, % [2]: (33) %; Time to first SRE, median [2]: 2.41 months; Post-randomization SRE: External radiation therapy to bone, % [3]: (23) %; Post-randomization SRE: Pathologic fractures, % [3]: (13) %; Post-randomization SRE: Spinal cord compression, % [3]: (6) %; Post-randomization SRE: Surgery to bone, % [3]: (9) %; SREs in patients with a prior history of SREs, % [3]: (36) %; Time to first SRE, median [3]: 4.27 months; Cases of spinal cord compression (randomized patients): 8; Patients with at least one skeletal-related event (SRE) (randomized patients): 14%
